Like-named read-outs stand apart in the source and are kept apart here.
How the values were obtained:
HparOBP49 = HparOBP49 (Holotrichia parallela, UniProt A0A0G2YD95); assay: Fluorescence competitive binding assay with 1-NPN probe, recombinant HparOBP49
Procedure: (§1) Purification was performed via Ni ion affinity chromatography (GE Healthcare, Beijing, China), and the His-tag was removed using enterokinase for HparOBP20 or tobacco etch virus (TEV) protease for HparOBP49.
(§2) We used an F-380 fluorescence spectrophotometer (Tianjin, China) to determine the results of the perform the binding assay at room temperature (25°C). The excitation wavelength was 337 nm, and the emission spectrum was recorded between 390 and 460 nm.

HparOBP20 = HparOBP20 (Holotrichia parallela, UniProt A0A0G2YKL4); assay: Fluorescence competitive binding assay with 1-NPN probe, recombinant HparOBP20
Procedure: as §1, §2

DBC adults [1] = assay: Y-tube olfactometer behavioral response; type: in vivo, Holotrichia parallela; conditions: 1 μg/μl, T/(T+C)
Procedure: The behavioral responses of female and male adults to the putative ligands were tested using a Y-tube olfactometer in a dark room at 27 ± 1°C. A filter paper (25 × 8 mm) with 10 μl of the test compound was placed at the end of one arm of the Y-tube, with 10 μl of methanol at the end of the other arm (control tube). The airflow was 500 ml/min. Six replicates were performed for each stimulant with 10 healthy virgin adults in the main stem of the Y-tube, and 10 min was allowed for their distribution. The response rate was calculated according to the following equations: response rate = (T+C)/SUM and selective response rate = T/(T+C), where T represents the number of beetles in the treatment tube; C indicates the number of beetles in the control tube; and SUM is the number of beetles tested.

DBC adults [2] = assay: Field evaluation, baited traps; type: in vivo, Holotrichia parallela; conditions: males, 360 mg per dispenser, mean ± SE, N=3 traps
Procedure: According to the laboratory evaluation, in addition to the main sex pheromone component, L-leucine methyl ester, (Z)-3-hexenyl acetate was considered as a candidate compound for attracting DBC adults in the field. The tested chemicals were individually dissolved with methanol to 360 mg/ml. A dispenser was constructed using oil-free cotton wool with 360 mg of the tested chemical and stored in a freezer before use. Methanol was employed as a control. The treatments were as follows: • - L-leucine methyl ester alone, 360 mg/ml, 1 ml/dispenser • - (Z)-3-hexenyl acetate alone, 360 mg/ml, 1 ml/dispenser • - methanol alone as control, 99% purity, 1 ml/dispenser All experiments were performed at the experimental station of the Shandong Peanut Research Institute, Lai Xi Wang Cheng, Qingdao, China. Traps were placed in middle of the field, and each trap was located 60 m from any other trap, so that the individual treatments were 60 m apart. To avoid cross-contamination, only one compound was tested at each sub-site at any time, and each compound was tested at only one sub-site ([Isberg et al., 2017]). Each trap was set to operate from 1 h before sunset until 1 h after sunset. Three traps (replicates) were selected for each treatment. The test period was June 1–20, 2017. As a rule, the traps were checked every day, and the individuals that were caught in all experiments were sexed.

DBC antennae = assay: Electroantennogram (EAG) responses of virgin male/female antennae; set-up: species or system Holotrichia parallela; conditions: 1 μg/μl, corrected with methanol
Procedure: The EAG responses of virgin male/female antennae were measured after removing the tips of the three antennal lamellae (at approximately 1 mm) and separating them from each other. The chemicals used for the EAG and behavior assays were diluted in methanol (HPLC grade) to varying concentrations (0.1, 1, and 10 μg/μl), and methanol was used as a control. A 10 μl aliquot of each concentration was applied to a filter paper (25 × 8 mm). EAG responses were recorded for 5 s, with a stimulation interval of 30 s and a flow rate of 4 ml/s for both the stimulant and purge airflow. Each chemical was tested against six antennae, and each antenna was tested with three repeated stimulations. The EAG apparatus consisted of a signal acquisition system (IDAC-4), a micromanipulator assembly (INR-5), a stimulus controller (CS-05), and a system for outputting the EAG results (Syntech Company, Holland).

[3] = displacement of 2 μM 1-NPN, 2 μM protein, Tris-HCl pH 7.4, 25°C, read-out: IC50, HparOBP49
[4] = displacement of 2 μM 1-NPN, 2 μM protein, Tris-HCl pH 7.4, 25°C, read-out: IC50, HparOBP20
[5] = calculated from IC50, Ki = [IC50]/(1+[1-NPN]/K1-NPN), read-out: Ki, HparOBP20
[6] = Ki, HparOBP20, calculated from IC50, Ki = [IC50]/(1+[1-NPN]/K1-NPN)

Chain of HparOBP20 (A0A0G2YKL4 entry or part of it): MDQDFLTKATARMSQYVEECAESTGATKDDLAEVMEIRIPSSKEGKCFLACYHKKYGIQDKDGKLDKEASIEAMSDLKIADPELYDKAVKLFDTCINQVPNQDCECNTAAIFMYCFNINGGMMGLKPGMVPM
Chain of HparOBP49 (A0A0G2YD95 entry or part of it): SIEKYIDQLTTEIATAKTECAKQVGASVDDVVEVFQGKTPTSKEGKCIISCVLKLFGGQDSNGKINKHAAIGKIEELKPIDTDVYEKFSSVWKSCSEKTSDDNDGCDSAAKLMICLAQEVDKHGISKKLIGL

IC50 (HparOBP49; [3])	IC50 (HparOBP20; [4])	Ki (HparOBP20; [5])	SMILES	IC50 (HparOBP49)	IC50 (HparOBP20)	other results
–	–	–	CCCCCC=O [1-Hexanal]	> 50 µM	> 50 µM	–
> 50 µM	> 50 µM	–	CCCCCCO [1-Hexanol]	–	–	–
> 50 µM	26.1 µM	21.9 µM	Cn1cccc1 [1-Methylpyrrole]	–	–	–
> 50 µM	30.2 µM	25.3 µM	CCCCCCCCO [1-Octanol]	–	–	–
> 50 µM	> 50 µM	–	CC(=O)c1ccc(C)c(C)c1 [3′,4′-Dimethylacetophenone]	–	–	–
–	–	–	CCc1ccc(C(C)=O)cc1 [4′-Ethylacetophenone]	> 50 µM	> 50 µM	–
–	–	–	CCC/C=C/CO [(E)-2-Hexen-1-ol]	> 50 µM	> 50 µM	–
–	–	–	CCC/C=C/C=O [(E)-2-Hexenal]	> 50 µM	> 50 µM	–
> 50 µM	27.8 µM	23.3 µM	CCC/C=C/COC(C)=O [(E)-2-Hexenyl acetate]	–	–	–
–	–	–	CC/C=C/CCO [(E)-3-Hexen-1-ol]	> 50 µM	30.3 µM	Ki (HparOBP20; [6]): 25.4 µM
> 50 µM	> 50 µM	–	C=C[C@](C)(O)CCC=C(C)C [(R)-(-)-Linalool]	–	–	–
–	–	–	CC/C=C\CCO [(Z)-3-Hexen-1-ol]	> 50 µM	30.1 µM	Ki (HparOBP20; [6]): 25.2 µM
44.7 µM	22.1 µM	18.5 µM	CC/C=C\CCOC(C)=O [(Z)-3-Hexenyl acetate]	–	–	Ki (HparOBP49; calculated from IC50, Ki = [IC50]/(1+[1-NPN]/K1-NPN), read-out: Ki, HparOBP49): 39.7 µM; Selective response rate, females (DBC adults [1]; females): 98%; Selective response rate (%), Male (DBC adults [1]; males, in Figure 6, letters mark significance): 59%; Male DBCs caught in traps (DBC adults [2]): 83 ± 4.933 DBCs; EAG response, females (DBC antennae; female antennae): 4.84 mV; EAG response, males (DBC antennae; male antennae): 4.02 mV
–	–	–	O=Cc1ccccc1 [Benzaldehyde]	> 50 µM	> 50 µM	–
–	–	–	OCc1ccccc1 [Benzyl alcohol]	> 50 µM	> 50 µM	–

SMILES	IC50 (HparOBP49; [3])	IC50 (HparOBP20; [4])	Ki (HparOBP20; [5])	IC50 (HparOBP49)	IC50 (HparOBP20)	other results
C=C(C)[C@H]1CC=C(C)CC1 [(R)-(+)-Limonene]	> 50 µM	28.7 µM	24 µM	–	–	–

— paper PMC6058716, “Two Odorant-Binding Proteins of the Dark Black Chafer (Holotrichia parallela) Display Preferential Binding to Biologically Active Host Plant Volatiles” (Frontiers in Physiology, 2018)
